Measured values taken from patent US20230221325A1, “SOLUBLE CD28 LEVELS AFTER IMMUNOTHERAPY” (BIOND BIOLOGICS LTD., priority 2019, published 2023).

How the values were obtained:
CMV-stimulated PBMC = test: CMV activation of PBMCs for the generation of soluble CD28 (ELISA); assay type: cell-based, human; conditions: 7 days CMV stimulation, with anti-PD-1 (Keytruda) 5 μg/mL, inhibitor 1 μM
[1] = test system: SEB stimulated human PBMC; test: SEB activation of PBMCs for the generation of soluble CD28 (ELISA); assay type: cell-based
melanoma patients = test: Survival of melanoma patients on anti-PD1 therapy by sCD28 level before therapy; assay type: in vivo, human
Method: To further understand the impact of sCD28 levels on cancer progression during immunotherapy, more than 100 serum samples from melanoma patients prior to initiation of anti-PD1 therapy (Nivolumab, NCT01176461) were tested for sCD28 levels by ELISA. Survival was monitored throughout therapy and a survival function was plotted comparing subjects with high and low levels of sCD28 before therapy (FIG. 1).

CNC(=O)[C@@H](NC(=O)[C@H](CCCc1ccccc1)[C@H](C)N(O)C=O)C(C)(C)C [GI254023X]
sCD28 increase caused by anti-PD-1 (CMV-stimulated PBMC): abrogated the sCD28 increase caused by immunotherapy

Keytruda: Anti-PD-1 (Keytruda, Merck)
sCD28 in the media (increase induced by SEB) ([1]; PBMCs from two healthy donors, SEB for 8 days, anti-PD-1 5 μg/mL vs isotype control): enhanced | sCD28 increase caused by the immunotherapy, significance ([1]; days 6-8, vs isotype control): statistically significant

Nivolumab: anti-PD1 therapy (NCT01176461)
median survival (melanoma patients; subjects with high levels of sCD28 before therapy): 514 days | median survival (melanoma patients; subjects with low levels of sCD28 (below 2 ng/mL) before therapy): 659 days
